Results taken from PubChem BioAssay (NCI).
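Growth conditions: 96-well plates. Treatment: test compound, 48 hours, 5 concentrations. Analysis: linear interpolation between bracketing concentrations; unreached endpoints set to highest concentration. TGI marks complete inhibition of growth.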

Tests used:
Test in all cases: NCI tumour cell line growth inhibition, 48 h
[1] = system: OVCAR-8 ovarian
[2] = system: HCC-2998 colon
[3] = system: ACHN renal
[4] = system: XF 498 CNS
[5] = system: SK-OV-3 ovarian
[6] = system: SF-295 CNS
[7] = system: UACC-257 melanoma
[8] = system: EKVX NSCLC
[9] = system: M14 melanoma
[10] = system: KM12 colon
[11] = system: MALME-3M melanoma
[12] = system: HOP-62 NSCLC
[13] = system: SF-268 CNS
[14] = system: CCRF-CEM leukemia
[15] = system: NCI-H522 lung
[16] = system: HL-60(TB) leukemia
[17] = system: MOLT-4 leukemia
[18] = system: RXF 393 renal
[19] = system: DMS 114 small cell lung
[20] = system: SW-620 colon
[21] = system: SR leukemia
[22] = system: LXFL 529 NSCLC
[23] = system: NCI-H23 lung
[24] = system: SK-MEL-28 melanoma
[25] = system: KM20L2 colon
[26] = system: SN12C renal
[27] = system: COLO 205 colon
[28] = system: NCI-H226 lung
[29] = system: SK-MEL-5 melanoma
[30] = system: UO-31 renal
[31] = system: SF-539 CNS
[32] = system: 786-0 renal
[33] = system: HCT-116 colon
[34] = system: NCI-H460 lung
[35] = system: DMS 273 small cell lung
[36] = system: U251 CNS
[37] = system: A549 NSCLC
[38] = system: IGROV1 ovarian
[39] = system: OVCAR-3 ovarian
[40] = system: LOX IMVI melanoma
[41] = system: HCT-15 colon
[42] = system: HT29 colon
[43] = system: RPMI-8226 leukemia
[44] = system: SNB-19 CNS
[45] = system: K-562 leukemia
[46] = system: M19-MEL melanoma
[47] = system: MDA-MB-231 breast
[48] = system: BT-549 breast
[49] = system: MDA-MB-435
[50] = system: HOP-92 NSCLC
[51] = system: OVCAR-4 ovarian
[52] = system: MCF7 breast
[53] = system: NCI/ADR-RES ovarian
[54] = system: SK-MEL-2 melanoma
[55] = system: TK-10 renal
[56] = system: CAKI-1 renal
[57] = system: DU-145 prostate
[58] = system: PC-3 prostate
[59] = system: T-47D breast
[60] = system: OVCAR-5 ovarian
[61] = system: UACC-62 melanoma
[62] = system: HS 578T breast
[63] = system: A498 renal
[64] = system: SNB-75 CNS
[65] = system: MDA-N
[66] = system: SNB-78 CNS

Measured: TGI

O=C1NCCCC12CCCNC2=O
not listed: [47] | [48] | [49] | [50] | [51] | [52] | [53] | [54] | [55] | [56] | [57] | [58] | [59] | [60] | [61] | [62] | [63] | [64] | [65] | [66]
> 100 µM: all other assays above

CC(=O)OC1COC(n2nc(/C=C/c3ccc(Cl)cc3)c(=O)n(/N=C/c3ccccc3)c2=S)C(OC(C)=O)C1OC(C)=O (centres undefined)
not listed: [4] | [19] | [22] | [25] | [35] | [46] | [66]
> 100 µM: all other assays above

O=C(O)CCSCCCN1C(=O)c2ccccc2C1=O
not listed: [4] | [9] | [12] | [14] | [15] | [16] | [34] | [35] | [40] | [47] | [48] | [49] | [52] | [53] | [56] | [57] | [58] | [59] | [62] | [63] | [65]
> 100 µM: all other assays above

CC(=O)Oc1ccc2c(C)cc(=O)oc2c1
not listed: [4] | [19] | [22] | [25] | [35] | [46] | [66]
> 100 µM: all other assays above
